Here are results for 15 compounds from patent publication US5223507A, “Method of using opioid compounds as delta opioid selective agonist analgesics” (G. D. Searle & Co., priority 1992, dated 1993).

One assay addresses μ opioid receptors (Rattus norvegicus, UniProt P33535). The experiment in a line: Opiate Binding Assay, displacement of 3[H]-DAMGO (μ receptor). As to conditions: for Percent Inhibition, mu: at 100 nm, rat forebrain membranes, 3[H]-DAMGO.
Another assay deals with δ opioid receptors (Rattus norvegicus, UniProt P33533). Description: Opiate Binding Assay, displacement of 3[H]-DSLET (δ receptor). As to conditions: for Mean IC50 μ/δ Ratio: ratio of mean IC50 values for μ and δ opioid receptors; for Percent Inhibition, delta: rat forebrain membranes, 3[H]-DSLET.
Sequence of δ opioid receptors (P33533 whole entry): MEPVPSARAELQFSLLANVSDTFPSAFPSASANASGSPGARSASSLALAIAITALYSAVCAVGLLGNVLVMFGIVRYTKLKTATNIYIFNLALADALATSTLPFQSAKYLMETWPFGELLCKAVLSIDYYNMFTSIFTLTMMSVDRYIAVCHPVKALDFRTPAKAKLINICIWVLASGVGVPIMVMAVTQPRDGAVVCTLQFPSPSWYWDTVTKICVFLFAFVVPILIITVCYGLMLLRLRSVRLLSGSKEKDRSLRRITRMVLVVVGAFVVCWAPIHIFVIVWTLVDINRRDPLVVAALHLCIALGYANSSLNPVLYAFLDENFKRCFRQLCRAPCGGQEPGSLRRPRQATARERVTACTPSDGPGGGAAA
Another assay has as its system mice. Description: Phenylbenzoquinone (PBQ) Writhing Assay. The class given is in vivo, mouse (Charles River male albino mice). Conditions: for ED50: Mus musculus, 0.5 h; for Number of mice in 10 exhibiting inhibition of writhing, S.C.: screening doses 10 and/or 30 mpk. From the text: The Writhing Assay is one of the most widely-used experimental procedures for measuring the analgesic activity of different narcotic and nonnarcotic analgesic agents, and involves the continuous, chemically-induced pain of visceral origin to an animal, such as a mouse or rat. [Gyires et al., Arch. int. Pharmacodyn, 267, 131-140 (1984); C. Vander Wende et al., Fed. Proc., 15, 494 (1956); Koster et al., Fed. Proc., 18, 412 (1959); and Witken et al., J. PharmacoI. exp. Tger., 133, 400-408 (1961).] Chemicals which may be used to induce this pain include phenylbenzoquinone (PBQ) and acetic acid. As a result of the chemical irritation to the animal, a characteristic stretching and writhing of the animal (dorsiflexion of the animal's back, extension of its hindlimbs and the strong contraction of its abdominal musculature) will generally occur. […] Drugs which reduce the number of writhes of the animal appear to restore the normal nociceptive threshold of the animal.
Charles River male albino mice, weighing 20 to 30 grams were used in this assay.
Thirty minutes after subcutaneous or intragastric administration to ten mice of either 10 mg or 30 mg per kilogram of body weight of a compound of the present invention ("test compound"), […] of body weight of a 0.025% w/v solution of PBQ was injected intraperitoneally into each mouse. Ten mice which were given saline in place of a test compound of the invention were used as a control group.
Five minutes later, each mouse was individually placed into a glass beaker for observation, and the number of writhes occurring during the following ten-minute period was counted.
A test compound was considered to be "active" in this assay (to have produced analgesia in a mouse) if, after the administration of the compound to the mouse, the number of writhes elicited by a mouse injected with PBQ was equal to, or less than, one-half the median number of writhes recorded for the saline-treated control group of mice that day, as described by Taber in "Predictive Value of Analgesic Assays in Mice and Rats," Advances in Biochemical Psychopharmacology, 8, 191 (1974).
The standard initial screening doses of a test compound employed in this assay were 10 and/or 30 […] for both routes of administration.
(In general: Writhing tests count abdominal constrictions after an irritant is injected.)

Where [1] appears, read: po, intragastric, 30 min before PBQ, read-out: PBQ WRITHING ASSAY ED50 (mpk) I.G.
[2] abbreviates: intragastric, 30 min before PBQ.
The mark [3] stands for this setting: sc, subcutaneous, 30 min before PBQ, read-out: PBQ WRITHING ASSAY ED50 (mpk) S.C.

The structures appear in SMILES notation. Counter-ions that a name gives are not always drawn. Like-named read-outs stand apart in the source and are kept apart here.

Sequence of μ opioid receptors (P33535 whole entry): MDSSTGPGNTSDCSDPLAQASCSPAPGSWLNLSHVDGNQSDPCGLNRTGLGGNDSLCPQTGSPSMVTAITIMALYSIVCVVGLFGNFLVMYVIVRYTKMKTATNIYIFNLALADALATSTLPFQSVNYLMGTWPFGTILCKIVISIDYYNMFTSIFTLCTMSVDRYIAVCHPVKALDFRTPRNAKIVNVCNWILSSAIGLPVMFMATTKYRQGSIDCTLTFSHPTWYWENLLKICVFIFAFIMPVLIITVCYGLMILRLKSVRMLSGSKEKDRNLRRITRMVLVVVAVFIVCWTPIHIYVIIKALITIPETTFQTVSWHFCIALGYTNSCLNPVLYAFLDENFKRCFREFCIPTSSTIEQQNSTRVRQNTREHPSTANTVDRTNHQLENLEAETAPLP

Turning to `Oc1ccc2c3c1O[C@H]1c4oc5ccccc5c4C[C@@]4(O)[C@@H](C2)N(CC2CCC2)CC[C@]314` [XV, 6,7,8,14bβ-Tetrahydro-7-(cyclobutylmethyl)-4,8 (R,α)-methano-4bS^* -5H-bisbenzofuro [3,2-e:2',3'-g]isoquinoline-1,8aβ(9H)-diol, monohydrochloride], the values for the IC50 on μ opioid receptors and at δ opioid receptors were 690 nM and 5.1 nM, respectively. Moreover, the “Mean IC50 μ/δ Ratio” value on δ opioid receptors is 135.

On to `C=CCN1CC[C@]23c4c5ccc(O)c4O[C@H]2c2[nH]c4ccccc4c2C[C@@]3(O)[C@H]1C5` [VIII, 5,6,7,8,14,14bβ-Hexahydro-7(2-propenyl)-4,8 (R,α)-methano-4bS^* -benzofuro[2,3-a]pyrido[4,3-b] carbazole-1,8aβ(9H)-diol, monohydrochloride], for which the IC50 (commonly the concentration that gives 50% inhibition) at μ opioid receptors turned out to be 99 nM. Further, at δ opioid receptors, the half-maximal inhibitory concentration (IC50) was determined as 1.4 nM and the “Mean IC50 μ/δ Ratio” value stood at 71.

With `COc1ccc2c3c1O[C@H]1c4oc5ccccc5c4C[C@@]4(OC)[C@@H](C2)N(C)CC[C@]314` [IV, 2 6,7,8,14bβ-Hexahydro-1,8aβ-(9H)-dimethoxy-7-methyl-4,8(R,α)-methano-4bS^* -5H-bisbenzofuro [3,2-e:2',3'-g]isoquinoline], the 50% inhibitory concentration (IC50) at μ opioid receptors turned out to be 21200 nM. Moreover, the median effective dose (ED50) (commonly the dose that gives a 50% effect, or the effect in half of the subjects) in the assay with mice (setting [1]) worked out at 2.2 mg/kg. Further, in the assay with mice (subcutaneous), the “Number of mice in 10 exhibiting inhibition of writhing, S.C.” value is on record as 6/10. Besides, on δ opioid receptors, the 50% inhibitory concentration (IC50) was found to be 43.5 nM and the “Mean IC50 μ/δ Ratio” value came to 446.

With `CN1CC[C@]23c4c5ccc(O)c4O[C@H]2c2[nH]c4c(Br)cc(Br)cc4c2C[C@@]3(O)[C@H]1C5` [VI, 11,13-Dibromo-5,6,7,8,14,14bβ-hexahydro-7-methyl-4,8(R,α)-methano-4bS^* -benzofuro[2,3-a]pyrido[4,3-b] carbazole-1,8aβ(9H)-diol, monohydrochloride], in the assay with mice (setting [2]), the “PBQ WRITHING ASSAY ED50 (mpk) I.G.” value was “inactive”. Moreover, the “Number of mice in 10 exhibiting inhibition of writhing, S.C.” value in the assay on mice (subcutaneous) is 6/10. For the same compound, the “Percent Inhibition, delta” value on δ opioid receptors (10 nm) is given as 11%.

In the case of `CN1CC[C@]23c4c5ccc(O)c4O[C@H]2c2[nH]c4c(ccc6ccccc64)c2C[C@@]3(O)[C@H]1C5` [III, 5,6,7,8,16, 16bβ-Hexahydro-7-methyl-4,8(R, α)-methano-4BS^* -benzo[i]benzofuro [2,3-a]pyrido[4,3-b]carbazole-1,8aβ(9H)-diol, monohydrochloride], the concentration for half-maximal inhibition (IC50) at μ opioid receptors turned out to be 550 nM. Moreover, the “PBQ WRITHING ASSAY ED50 (mpk) I.G.” value in the assay on mice (setting [2]) is “inactive”. In the assay with mice (subcutaneous), the “Number of mice in 10 exhibiting inhibition of writhing, S.C.” value is reported as 5/10. For the same compound, at δ opioid receptors, the 50% inhibitory concentration (IC50) came out at 20.8 nM and the “Mean IC50 μ/δ Ratio” value was 26.

Take `CN1CC[C@]23c4c5ccc(O)c4O[C@H]2c2oc4ccccc4c2C[C@H]3[C@H]1C5` [XI, 6,7,8,8a,9,14bβ-Hexahydro-7-methyl-4,8(R,α)-methano-4bs^* -5H-bisbenzofuro[3,2-e:2',3'-g] isoquinolin-1-ol, monohydrochloride]: the results for the 50% inhibitory concentration (IC50) at μ opioid receptors and on δ opioid receptors were 24 nM and 3.5 nM, respectively. Moreover, the ED50 with mice (setting [3]) stood at 2 mg/kg. Besides, the “PBQ WRITHING ASSAY ED50 (mpk) I.G.” value in the assay with mice (setting [2]) was “inactive”. In addition, the “Mean IC50 μ/δ Ratio” value at δ opioid receptors amounted to 6.9.

As to `CCCN1CC[C@]23c4c5ccc(O)c4O[C@H]2c2oc4ccccc4c2C[C@@]3(O)[C@H]1C5` [XIV, 6,7,8,14bβ-Tetrahydro-7-propyl-4,8(R,α)-methano-4bS^* -5H-bisbenzofuro[3,2-e:2',3'-g] isoquinoline-1,8aβ(9H)-diol, monohydrochloride], the 50% inhibitory concentration (IC50) at μ opioid receptors was 200 nM. Further, at δ opioid receptors, the half-maximal inhibitory concentration (IC50) worked out at 7.7 nM and the “Mean IC50 μ/δ Ratio” value was 26.

Compound `CC(=O)O[C@@]12Cc3c([nH]c4ccccc34)[C@@H]3Oc4c(O)ccc5c4[C@@]31CCN(C)[C@@H]2C5` [XIX, 5,6,7,8,14,14bβ-Hexahydro-7-methyl-4,8(R,α-methano-4bS^* -benzofuro[2,3-a]pyrido[4,3-b]carbazole-1,8aβ-9H)-dio1,8a-acetate monohydrochloride] displayed a concentration for half-maximal inhibition (IC50) at μ opioid receptors of 769 nM. Besides, at δ opioid receptors, the IC50 was 1 nM and the “Mean IC50 μ/δ Ratio” value came out at 769.

Consider `CN1CC[C@]23c4c5ccc(O)c4O[C@H]2c2[nH]c4c(Br)cccc4c2C[C@@]3(O)[C@H]1C5` [VII, 13-Bromo-5,6,7,8,14bβ-hexahydro-7-methyl-4,8(R,α)-methano-4bS^* -benzofuro[2,3-a]pyrido [4,3-b]carbazole-1,8aβ(9H)-diol, monohydrochloride], for which the half-inhibitory concentration (IC50) on μ opioid receptors is 253 nM; at δ opioid receptors it was 10 nM. Moreover, the ED50 with mice (setting [1]) came to 2.3 mg/kg; with mice (setting [3]), 0.9 mg/kg. Moreover, the “Mean IC50 μ/δ Ratio” value at δ opioid receptors was 25.3.

As to `CN1CC[C@]23c4c5ccc(O)c4O[C@H]2c2oc4ccccc4c2C[C@@]3(O)[C@H]1C5` [II, 6,7,8,14bβ-Tetrahydro-7-methyl-4,8(R,α)-methano-4bS^* -5H-bisbenzofuro[3,2-e:2',3'-g]isoquinoline-1, 8aβ(9H)-diol, monohydrochloride], the half-maximal inhibitory concentration (IC50) at μ opioid receptors is 93 nM; on δ opioid receptors, 5.4 nM. In addition, the values for the ED50 in the assay with mice (setting [1]) and in the assay with mice (setting [3]) were 2.4 mg/kg and 0.2 mg/kg, respectively. For the same compound, on δ opioid receptors, the “Mean IC50 μ/δ Ratio” value is reported as 17.

For the compound `COc1ccc2c3c1O[C@H]1c4oc5ccccc5c4C[C@@]4(O)[C@@H](C2)N(C)CC[C@]314` [V, 6,7,8,14bβ-Tetrahydro-1-methoxy-7-methyl-4,8(R,α)-methano-4bS^* -5H-bisbenzofuro [3,2-e:2',3'-g]isoquinolin-8aβ(9H)-ol], the “Percent Inhibition, mu” value on μ opioid receptors was 2%. The median effective dose (ED50) in the assay with mice (setting [1]) turned out to be 2.7 mg/kg. The “PBQ WRITHING ASSAY ED50 (mpk) S.C.” value with mice (subcutaneous, 30 min before PBQ) is “inactive”. Moreover, the “Percent Inhibition, delta” value on δ opioid receptors (at 100 nm) was determined as 72%.

On to `CC(=O)Oc1ccc2c3c1O[C@H]1c4[nH]c5ccccc5c4C[C@@]4(O)[C@@H](C2)N(C)CC[C@]314` [XVII, 5,6,7,8,14,14bβ-Hexahydro-7-methyl-4,8 (R,α)-methano-4bS^* -benzofuro[2,3-a] pyrido[4,3-b]carbazole-1,8aβ(9H)-diol, 1-acetate], for which, at μ opioid receptors, the IC50 was determined as 1300 nM. In addition, at δ opioid receptors, the IC50 is 34 nM and the “Mean IC50 μ/δ Ratio” value is 38.

On to `CN1CC[C@]23c4c5ccc(O)c4O[C@H]2c2[nH]c4ccccc4c2C[C@H]3[C@H]1C5` [XII, 5,6,7,8,8a,9,14, 14bβ-Octahydro-7-methyl-4,8(R,α)-methano-4bS^* -benzofuro[2,3-a] pyrido[4,3-b]carbazol-1-ol, monohydrochloride], for which the values for the IC50 on μ opioid receptors and on δ opioid receptors were 58 nM and 4.9 nM, respectively. Also, the “Mean IC50 μ/δ Ratio” value on δ opioid receptors is on record as 11.8.

On to `CC(=O)Oc1ccc2c3c1O[C@H]1c4[nH]c5ccccc5c4C[C@@]4(OC(C)=O)[C@@H](C2)N(C)CC[C@]314` [XVIII, 5,6,7,8,14,14bβ-Hexahydro-7-methyl-4,8(R,α)-methano-4bS^* -benzofuro[2,3-a] pyrido[4,3-b]carbazole-1,8aβ-9H)-diol, diacetate, monohydrochloride], for which, at μ opioid receptors, the “Percent Inhibition, mu” value was found to be 72%. The compound also showed an IC50 at δ opioid receptors of 66.4 nM.

On μ opioid receptors, `CN1CC[C@]23c4c5ccc(O)c4O[C@H]2c2[nH]c4ccccc4c2C[C@@]3(O)[C@H]1C5` [I, 5,6,7,8,14,14bβ-Hexahydro-7-methyl-4,8(R,α)-methano-4bS^* -benzofuro[2,3-a]pyrido[4,3-b]carbazole-1, 8aβ(9H)-diol, monohydrochloride] showed an IC50 of 152 nM. Further, at δ opioid receptors, the concentration for half-maximal inhibition (IC50) stood at 2.6 nM and the “Mean IC50 μ/δ Ratio” value is given as 58.
